# Experimental data as given in ChEMBL document CHEMBL1133608 (J Med Chem, 2000).
# Assays:
# D(2) dopamine receptor [1] = target: T1, D(2) dopamine receptor (Rattus norvegicus, UniProt P61169, S197A); experiment: In vitro affinity at mutant D2 receptor (S197A) in C6 (glioma) cell membranes.; format: cell-based
# D(2) dopamine receptor [2] = target: T2, D(2) dopamine receptor (Rattus norvegicus, UniProt P61169, S194A); experiment: biochemical; format: cell-based, C6 glioma
# D(2) dopamine receptor [3] = target: D(2) dopamine receptor (Rattus norvegicus, UniProt P61169, S193A); experiment: In vitro affinity at mutant D2 receptor (S193A) in C6 (glioma) cell membranes.; format: cell-based
# D(2) dopamine receptor (Rattus norvegicus, UniProt P61169, S193A), sequence (P61169 whole entry S193A): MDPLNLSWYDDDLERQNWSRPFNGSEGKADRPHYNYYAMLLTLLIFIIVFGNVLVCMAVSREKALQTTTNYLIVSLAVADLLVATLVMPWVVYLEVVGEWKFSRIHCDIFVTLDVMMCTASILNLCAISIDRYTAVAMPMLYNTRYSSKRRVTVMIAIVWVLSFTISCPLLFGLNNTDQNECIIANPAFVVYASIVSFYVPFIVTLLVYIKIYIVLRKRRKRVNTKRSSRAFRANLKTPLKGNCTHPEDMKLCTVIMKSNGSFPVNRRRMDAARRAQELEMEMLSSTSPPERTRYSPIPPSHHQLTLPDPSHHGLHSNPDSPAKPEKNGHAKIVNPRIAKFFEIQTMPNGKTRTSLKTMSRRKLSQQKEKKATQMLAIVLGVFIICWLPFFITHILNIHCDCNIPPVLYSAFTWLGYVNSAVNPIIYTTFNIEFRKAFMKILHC
# D(2) dopamine receptor [4] = target: T2, D(2) dopamine receptor; experiment: In vitro affinity at mutant D2 receptor (S194A) in C6 (glioma) cell membranes.; format: cell-based
# D(2) dopamine receptor [5] = target: D(2) dopamine receptor (Rattus norvegicus, UniProt P61169); experiment: biochemical; format: cell-based, C6 glioma
# D(2) dopamine receptor (Rattus norvegicus, UniProt P61169), sequence (P61169 whole entry): as the sequence (P61169 whole entry S193A) above, with A193S counted along it
# D(2) dopamine receptor [6] = target: T2, D(2) dopamine receptor; experiment: biochemical; format: cell-based, C6 glioma; remark: listed apart in the source
# D(2) dopamine receptor [7] = target: T1, D(2) dopamine receptor; experiment: biochemical; format: cell-based, C6 glioma
# T1 sequence (P61169 whole entry S197A): as the sequence (P61169 whole entry S193A) above, with A193S, S197A counted along it
# T2 sequence (P61169 whole entry S194A): as the sequence (P61169 whole entry S193A) above, with A193S, S194A counted along it
smiles,measurement,setting,value
CCCN1Cc2c(C)cccc2[C@@H]2c3cc(O)c(O)cc3CC[C@H]21,Kd,D(2) dopamine receptor [1],700 nM
same,Kd,D(2) dopamine receptor [2],1300 nM
same,Kd,D(2) dopamine receptor [3],1300 nM
same,Kd,D(2) dopamine receptor [4],400 nM
same,Kd,D(2) dopamine receptor [5],300 nM
same,Kd,D(2) dopamine receptor [5]; c6 glioma,300 nM
COc1cc(CCN)ccc1O,Kd,D(2) dopamine receptor [6],88000 nM
same,Kd,D(2) dopamine receptor [2],251000 nM
same,Kd,D(2) dopamine receptor [7],225000 nM
same,Kd,D(2) dopamine receptor [5],94000 nM
N[C@@H]1CCc2cc(O)c(O)cc2C1,Kd,D(2) dopamine receptor [6],450 nM
same,Kd,D(2) dopamine receptor [2],17000 nM
same,Kd,D(2) dopamine receptor [7],120 nM
same,Kd,D(2) dopamine receptor [5],210 nM
CN1C[C@H](C(N)=O)C=C2c3cccc4[nH]cc(c34)C[C@H]21,Kd,D(2) dopamine receptor [1],1 nM
same,Kd,D(2) dopamine receptor [2],1.8 nM
same,Kd,D(2) dopamine receptor [3],2.8 nM
same,Kd,D(2) dopamine receptor [4],2.8 nM
same,Kd,D(2) dopamine receptor [5],0.62 nM
same,Kd,D(2) dopamine receptor [5]; c6 glioma,0.62 nM
CC(C)C[C@H]1C(=O)N2CCC[C@H]2[C@]2(O)O[C@](NC(=O)[C@@H]3C=C4c5cccc6[nH]c(Br)c(c56)C[C@H]4N(C)C3)(C(C)C)C(=O)N12 [BROMOCRIPTINE],Kd,D(2) dopamine receptor [6],17 nM
same,Kd,D(2) dopamine receptor [2],8 nM
same,Kd,D(2) dopamine receptor [7],4 nM
same,Kd,D(2) dopamine receptor [5],8 nM
CCN(CC)C(=O)N[C@H]1C=C2c3cccc4[nH]cc(c34)C[C@H]2N(C)C1 [LISURIDE],Kd,D(2) dopamine receptor [6],2.3 nM
same,Kd,D(2) dopamine receptor [2],0.3 nM
same,Kd,D(2) dopamine receptor [7],0.4 nM
same,Kd,D(2) dopamine receptor [5],0.6 nM
